Test results from patent publication EP0598011B1, “ECDYSTEROID DEPENDENT REGULATION OF GENES IN MAMMALIAN CELLS” (GENENTECH, INC., priority 1991, dated 1993).

Tests used:
DHR23α = molecular target: T1, DHR23α (Drosophila melanogaster, UniProt P34021); assay: DHR23α transactivation of EcRE (Ec4M-77CO) CAT reporter in transfected human 293 cells; assay type: cell-based; details: pRSV.DHR23α + pEc4M-77CO (EcRE) CAT reporter, ligand 1 µM, 48 hrs
T1 construct: To isolate the full-length DHR23α clones; expressed in transfected cells; host or cells: human 293 cells
T1 sequence (P34021 1-878): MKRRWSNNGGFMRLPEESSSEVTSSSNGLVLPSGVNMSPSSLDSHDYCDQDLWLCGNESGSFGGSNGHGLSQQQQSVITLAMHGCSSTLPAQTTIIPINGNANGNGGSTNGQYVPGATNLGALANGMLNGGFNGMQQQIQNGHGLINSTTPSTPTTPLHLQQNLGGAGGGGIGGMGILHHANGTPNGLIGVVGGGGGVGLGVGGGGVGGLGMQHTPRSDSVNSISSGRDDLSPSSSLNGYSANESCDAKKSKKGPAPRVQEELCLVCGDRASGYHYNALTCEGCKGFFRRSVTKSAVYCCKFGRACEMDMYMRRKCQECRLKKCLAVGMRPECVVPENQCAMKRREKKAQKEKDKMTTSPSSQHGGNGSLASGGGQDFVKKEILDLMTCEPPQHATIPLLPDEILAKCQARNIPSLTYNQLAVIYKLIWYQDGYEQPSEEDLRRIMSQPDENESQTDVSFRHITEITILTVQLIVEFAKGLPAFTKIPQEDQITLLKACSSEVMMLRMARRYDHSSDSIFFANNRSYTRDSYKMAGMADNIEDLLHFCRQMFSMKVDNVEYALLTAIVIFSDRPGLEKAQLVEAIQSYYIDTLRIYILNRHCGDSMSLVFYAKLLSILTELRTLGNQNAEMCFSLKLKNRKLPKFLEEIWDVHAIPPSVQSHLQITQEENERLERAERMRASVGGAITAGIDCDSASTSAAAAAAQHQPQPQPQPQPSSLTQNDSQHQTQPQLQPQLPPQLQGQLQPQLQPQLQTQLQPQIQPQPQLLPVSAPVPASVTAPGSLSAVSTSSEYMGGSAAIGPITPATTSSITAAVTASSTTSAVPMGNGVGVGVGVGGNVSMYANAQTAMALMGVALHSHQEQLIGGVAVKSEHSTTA
T1 sequence (P19793 1-462 partner): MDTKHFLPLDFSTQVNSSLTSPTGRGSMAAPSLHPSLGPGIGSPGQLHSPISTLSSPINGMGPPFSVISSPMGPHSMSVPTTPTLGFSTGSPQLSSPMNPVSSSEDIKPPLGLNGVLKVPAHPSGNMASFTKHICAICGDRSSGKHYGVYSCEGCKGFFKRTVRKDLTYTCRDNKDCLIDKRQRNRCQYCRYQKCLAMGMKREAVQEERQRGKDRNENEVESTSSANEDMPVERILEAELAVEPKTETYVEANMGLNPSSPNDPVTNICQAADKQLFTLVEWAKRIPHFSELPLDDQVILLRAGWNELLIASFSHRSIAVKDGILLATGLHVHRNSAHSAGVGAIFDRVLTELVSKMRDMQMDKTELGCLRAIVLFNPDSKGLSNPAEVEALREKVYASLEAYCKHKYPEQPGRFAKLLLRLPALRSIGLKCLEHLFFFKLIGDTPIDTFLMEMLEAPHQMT
Description: Figure. 2. […] Human 293 cells were cotransfected with 2.5 µg of the expression plasmid pRSV.DHR23α or the parental expression plasmid pRSV (Control) and 0.5 µgs of the reporter plasmid pEc4M-77CO (EcRE) or pG4M-77CO (GRE). As a control for transfection efficiency, 0.5 µgs of the control plasmid pRSV.hGH was included in the transfection mixture. After transfection, cells were treated without (-) or with alpha-ecdysone (alpha), 20-OH ecdysone (20-OH), polypodine B (ppB), ponasterone A (ponA) or muristeroine A (murA). CAT extracts were harvested 48 hrs after transfection and assayed. The values were normalized to the expression of hGH and the average values of three independent experiments are shown. The "fold induction" represents the level of expression of the reporter gene in cells incubated with hormone divided by the expression of that reporter gene in extracts from cells incubated in the absence of added ligand.
I determined whether DHR23α could function in mammalian cells treated with ecdysteroids to enhance the transcription of a reporter gene containing EcREs linked to the murine mammary tumor virus (MTV) promoter and chloramphenicol acetyltransferase (CAT) gene. Human 293 cells were cotransfected with an RSV-based expression vector that encodes DHR23a and the reporter gene Ec4M-77CO that contains 4 copies of an ecdysone response element (EcRE) from the Drosophila HSP27 promoter (G. Riddihough and H. R. B. Pelham, EMBO J. 6, 3729 [1987]) linked to an MTV promoter-CAT construct.
Human 293 cells were cotransfected with 2.5 µg of the expression plasmid pRSV.DHR23α or the parental expression plasmid pRSV (Control) and 0.5 µgs of the reporter plasmid pEc4M-77CO (EcRE) or pG4M-77CO (GRE). As a control for transfection efficiency, 0.5 µgs of the control plasmid pRSV.hGH was included in the transfection mixture. After transfection, cells were treated without (-) or with alpha-ecdysone (alpha), 20-OH ecdysone (20-OH), polypodine B (ppB), ponasterone A (ponA) or muristeroine A (murA). All candidate ligands were added at a concentration of 1 µM. CAT extracts were harvested 48 hrs after transfection, and assays were performed as described (D. R. Cavener, Nucl. Acids Res. 15, 1353-1361 [1987]). The values were normalized to the expression of hGH and the average values of three independent experiments are shown in Figure 2. The "fold induction" represents the level of expression of the reporter gene in cells incubated with hormone divided by the expression of that reporter gene in extracts from cells incubated in the absence of added ligand.
Cells were transfected with the DHR23α expression vector and Ec4M-77CO reporter gene and treated without (-) or with the following hormones (1 µM): muristerone A (mur A) dexamethasone (Dex) 17β-estradiol (E2), aldosterone (Aldo), corticosterone (Cort) hydroxycorticosterone (OH-Cort) thyroid hormone (T3), promegestone (Promeg) or 1,25-dihydroxy vitamin D3 (VD3). Reporter gene activity was determined as described above for Figure 2.

G"E"Ec = molecular target: T2, G"E"Ec (UniProt P06536+P34021, G458E/S459G); assay: Induction of ERE reporter E4M-77CO by chimeric receptor G"E"Ec; assay type: cell-based; details: cells incubated 48 hrs
T2 construct: expressed in transfected cells
T2 sequence (P06536+P34021 fused P06536:G458E/P06536:S459G, one chain of several): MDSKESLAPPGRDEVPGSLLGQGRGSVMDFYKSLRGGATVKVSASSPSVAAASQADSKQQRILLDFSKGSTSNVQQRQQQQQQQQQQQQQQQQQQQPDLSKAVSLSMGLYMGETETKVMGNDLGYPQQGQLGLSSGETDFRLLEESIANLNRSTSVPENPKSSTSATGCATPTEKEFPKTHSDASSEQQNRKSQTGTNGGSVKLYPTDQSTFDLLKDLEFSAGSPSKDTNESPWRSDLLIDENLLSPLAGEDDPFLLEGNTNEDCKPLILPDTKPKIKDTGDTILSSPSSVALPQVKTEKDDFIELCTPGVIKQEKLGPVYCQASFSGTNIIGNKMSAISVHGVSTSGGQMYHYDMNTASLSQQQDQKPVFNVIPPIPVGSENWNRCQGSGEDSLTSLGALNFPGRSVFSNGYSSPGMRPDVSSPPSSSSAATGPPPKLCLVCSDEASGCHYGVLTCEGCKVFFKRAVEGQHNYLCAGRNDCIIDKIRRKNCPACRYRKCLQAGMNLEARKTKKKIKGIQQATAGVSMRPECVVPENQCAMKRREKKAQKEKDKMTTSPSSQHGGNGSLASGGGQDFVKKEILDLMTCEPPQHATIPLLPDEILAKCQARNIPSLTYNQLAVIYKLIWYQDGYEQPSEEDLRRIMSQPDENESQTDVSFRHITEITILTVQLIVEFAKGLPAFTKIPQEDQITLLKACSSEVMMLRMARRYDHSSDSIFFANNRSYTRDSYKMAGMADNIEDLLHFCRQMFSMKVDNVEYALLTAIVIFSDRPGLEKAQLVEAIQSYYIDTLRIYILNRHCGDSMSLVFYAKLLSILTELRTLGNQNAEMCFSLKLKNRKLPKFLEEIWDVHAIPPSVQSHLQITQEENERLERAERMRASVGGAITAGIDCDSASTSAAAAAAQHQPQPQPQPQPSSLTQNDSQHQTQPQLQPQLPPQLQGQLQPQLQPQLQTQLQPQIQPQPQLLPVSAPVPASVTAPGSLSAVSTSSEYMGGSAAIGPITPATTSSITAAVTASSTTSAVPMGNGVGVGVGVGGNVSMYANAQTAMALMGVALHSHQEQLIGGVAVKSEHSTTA
Description: Figure. 6. Induction of […] (EREs) by chimeric receptors. Cells were transfected with expression plasmids encoding eiher DHR23α (EcEcEc), G"E"G or G"E"Ec and E4M-77CO, that contains 4 EREs fused to the MTV promoter. Cells were incubated for 48 hrs with or wihout (-) or with muristerone A (M) or dexamethasone (D).
I then determined if a DHR23 fusion protein could regulate genes normally responsive to estrogens.
Cells were transfected with expression plasmids encoding either DHR23α (EcEcEc), G"E"G or G"E"Ec and E4M-77CO, that contains 4 EREs fused to the MTV promoter. Cells were incubated for 48 hrs with or without (-) or with muristerone A (M) or dexamethasone (D). Reporter gene activity was determined as described above for Figure 2.

SMILES: CC(C)CCC(O)[C@](C)(O)[C@H]1CC[C@@]2(O)C3=CC(=O)C4(O)CC(O)C(O)C[C@]4(C)[C@H]3C(O)C[C@]12C (stereo partly drawn) [muristerone A, 2,3,5,11,14,20,22-Heptahydroxy-7-cholesten-6-one]
- agonist for DHR23α in mammalian cells (expression of the reporter gene) (DHR23α): markedly increased
- agonist for DHR23α in mammalian cells (expression of the reporter gene) (DHR23α; listed as muristerone): strong agonist
- regulation of ERE containing reporter gene E4M-77CO (G"E"Ec): regulates the ERE containing reporter gene E4M-77CO in a muristerone-dependent fashion
